# Reference: BindingDB's records for doi:10.7270/Q2GQ70ZD (n/a, 1994)
# pKi: −log10 of the molar value.
# Target: T1, Alpha-1B adrenergic receptor (Homo sapiens, UniProt P35368)
# T1 sequence (P35368 whole entry): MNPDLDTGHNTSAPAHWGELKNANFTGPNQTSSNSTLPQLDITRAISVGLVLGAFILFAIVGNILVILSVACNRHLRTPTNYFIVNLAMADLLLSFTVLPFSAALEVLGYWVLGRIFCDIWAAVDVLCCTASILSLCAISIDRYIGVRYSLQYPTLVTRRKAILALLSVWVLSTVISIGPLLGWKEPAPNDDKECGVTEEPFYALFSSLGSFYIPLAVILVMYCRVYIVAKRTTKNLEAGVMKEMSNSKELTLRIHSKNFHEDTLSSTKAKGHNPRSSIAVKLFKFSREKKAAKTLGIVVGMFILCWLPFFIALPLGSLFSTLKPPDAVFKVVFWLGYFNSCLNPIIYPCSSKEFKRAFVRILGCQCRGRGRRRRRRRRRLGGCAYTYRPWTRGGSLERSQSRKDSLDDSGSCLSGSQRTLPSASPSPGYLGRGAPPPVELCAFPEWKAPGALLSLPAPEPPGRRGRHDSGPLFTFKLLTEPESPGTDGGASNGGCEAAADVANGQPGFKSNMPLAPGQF
# Assay: Binding affinity towards human Alpha-1B adrenergic receptor by the displacement of [3H]prazosin
row,Structure (SMILES),pKi
1,c1ccc2c(c1)CCCC2NC1=NCCO1 (stereo unspecified),5.61
2,C1COC(N2CCOCC2)=N1,3.00
3,C1COC(NC(C2CC2)C2CC2)=N1 [CHEBI:8862],4.67
4,C1CCCC(NC2=NCCO2)CC1,4.55
5,c1ccc2c(c1)CCCC2NC1=NCCCO1 (stereo unspecified),5.17
6,CCC[C@H]1CCCCC1NC1=NCCO1 (stereo partly specified),5.40
